The test system of data set [1] is DMBA-induced mammary tumors. In words: DMBA induced mammary tumor growth. It counts as in vivo, rat. The following applies: 15 mg/kg/day sc osmotic pump, 42 days. As to the method: The compounds of the present invention were also tested for the inhibition of tumor growth. Tumor growth inhibition was tested by the treatment of 50-day old female rats with the carcinogen, 7,12-dimethylbenz[a]anthracene[DMBA] and subsequently evaluated for tumor growth and/or remission (Huggins, C. et al., Nature 189:204, 1961; Russo, J. et al., Lab. Investigation 62: 244, 1990). Rats with DMBA-induced mammary tumors (≈[…]) were assigned to the following treatment groups: (1) Non-treated controls, (2) animals with subcutaneous implanted osmotic pump containing vehicle (DMSO/PEG200, 1:4 v/v), and (3) animals with subcutaneous implanted osmotic pump containing vehicle and 15 mg/kg/day of 2,19-(methyleneoxy) androst-4-ene-3,17-dione. Drug-treated animals also received 15 mg/kg/day via subcutaneous injections for the first two days of treatment as a priming dose. Tumor size was monitored for 42 days of drug treatment.

Data set [2] relates to intratumor aromatase. Put plainly: Inhibition of intratumor aromatase activity (estrogen formed). Type of data set: in vivo. An excerpt:
According to the method of Johnston, J. O. et al., J. Steroid Biochem., 33:521, 1989, which is herein incorporated by reference, the compounds of the present invention were further evaluated for their effect upon intratumor aromatase activity.

Data set [3] has as its target T1, aromatase (Homo sapiens, UniProt P11511).
T1 sequence (P11511 1-503): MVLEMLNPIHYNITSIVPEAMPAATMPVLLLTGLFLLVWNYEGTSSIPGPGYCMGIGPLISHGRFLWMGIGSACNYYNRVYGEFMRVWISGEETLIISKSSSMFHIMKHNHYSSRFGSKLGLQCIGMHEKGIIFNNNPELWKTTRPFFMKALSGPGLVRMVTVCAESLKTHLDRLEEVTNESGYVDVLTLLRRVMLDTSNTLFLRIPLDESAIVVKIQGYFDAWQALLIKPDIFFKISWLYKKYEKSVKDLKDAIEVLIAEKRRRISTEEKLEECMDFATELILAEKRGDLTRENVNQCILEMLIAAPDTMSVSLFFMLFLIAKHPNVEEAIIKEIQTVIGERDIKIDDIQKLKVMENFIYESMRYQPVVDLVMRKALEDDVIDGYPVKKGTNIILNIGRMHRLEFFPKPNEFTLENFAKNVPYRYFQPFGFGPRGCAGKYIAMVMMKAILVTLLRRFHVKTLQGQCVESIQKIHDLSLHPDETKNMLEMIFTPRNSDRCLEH
Put plainly: Time-dependent aromatase inhibition assay (Kitz-Wilson kinetics). The following applies: 25° C., Kitz-Wilson plots; for KI (inactivation): read-out: apparent Ki of inactivation, inhibitor concentration for half-maximal rate of enzyme inactivation. How it is done:
In this assay, the inhibitor is preincubated with enzyme prior to assaying for activity in the presence of high substrate levels. A time-related decrease in enzyme activity can be indicative of irreversible binding of the inhibitor with the enzyme.
In the time-dependent assay, an amount of the enzyme inhibitor in 100 μl of the assay buffer described above which will provide assay concentrations which are usually between 1 nM and 10 μM are added to 35 ml centrifuge tubes containing 600 μl of the NADPH generating system. The preincubation is started by the addition of 700 μl of aromatase preparation, usually 500-800 μg of microsomal protein per ml of assay buffer. These preparations are mixed using a vortex mixer and incubated for 0, 10, 20, or 40 minutes at 25° C. […] Following vortexing, the enzyme incubation is continued for 10 minutes before being terminated by the addition of chloroform. The amount of radioactivity in the aqueous fraction is determined by scintillation procedures. The enzymatic activity for each concentration of inhibitor at each time period of preincubation is calculated as a percent of the "0" minute vehicle control arbitrarily set at 100%. Therefore, the present enzyme inhibition is expressed as a percentage: (100 percent minus percent enzyme activity with inhibitor present).
Enzyme kinetic analysis utilized Kitz-Wilson plots for time-dependent assays. These analyses provide estimates of apparent Ki of inactivation which represents the inhibitor concentration required to produce half-maximal rate of enzyme inactivation. The pseudo first-order rate constant for enzyme inactivation (kcat) and the half-time of inactivation (.tau.50) of infinite inhibitor concentrations were determined.

Substrate in data set [4]: C[C@]12CCC(=O)C=C1CC[C@@H]1[C@@H]2CC[C@]2(C)C(=O)CC[C@@H]12
Put plainly: purified protein, by the assay type. The following applies: other: substrate of aromatase; 25.0 °C.

Four molecules from patent US6313161A, “2,19-methyleneoxy and 2,19-methylenethio bridged steroids as aromatase, 19-hydroxylase inhibitors and methods of their use in the treatment of estrogen mediated disorders” (Merrell Pharmaceuticals Inc., priority 1999, dated 2001) can be followed below.

In general, Km refers to the concentration of substrate that gives half-maximal velocity.

`C[C@]12CC[C@H]3[C@@H](CCC4=CC(=O)[C@H]5COC[C@]43C5)[C@@H]1CCC2=O` [2,19-(methyleneoxy)androst-4-ene-3,17-dione]: in data set [1] (50 to 150% of original tumor volume, controls 6.7), the “percent of animals with no change” value is on record as 14.3% of animals. Besides, in data set [1] (<50% of original tumor volume, controls 6.7), the “percent of animals with partial tumor regression” value was 42.9% of animals. Also, the “percent of animals with tumor progression” value in data set [1] (>150% of original tumor volume, controls 80.0) is 28.6% of animals. Also, the “percent of animals with complete tumor regression” value in data set [1] (Complete (0%), controls 6.7) is 14.3% of animals. For the same molecule, the “% Inhibition of intratumor aromatase activity” value in data set [2] (3 mg/kg intraveneous, 2 hours post treatment) is recorded as 70 ± 5%; in data set [2] (3 mg/kg intraveneous, 4 hours post treatment) it was 41 ± 4%; in data set [2] (3 mg/kg intraveneous, 6 hours post treatment), 37 ± 3%; in data set [2] (3 mg/kg oral, 2 hours post treatment) it was 72 ± 5%; in data set [2] (3 mg/kg oral, 4 hours post treatment), 64 ± 4%; in data set [2] (3 mg/kg oral, 6 hours post treatment), 63 ± 5%. Also, the “% Inhibition of intratumor aromatase activity” value in data set [2] (3 mg/kg subcutaneous, 2 hours post treatment) was 44 ± 5%; in data set [2] (3 mg/kg subcutaneous, 4 hours post treatment), 45 ± 32%; in data set [2] (3 mg/kg subcutaneous, 6 hours post treatment), 35 ± 7%. The “Estrogen formed, absolute level” value in data set [2] (3 mg/kg intraveneous, 2 hours post treatment, vehicle control 294 ± 5) was 88 ± 15 picomoles/gram of tumor/hour; in data set [2] (3 mg/kg intraveneous, 4 hours post treatment, vehicle control 294 ± 5), 175 ± 12 picomoles/gram of tumor/hour; in data set [2] (3 mg/kg intraveneous, 6 hours post treatment, vehicle control 294 ± 5) it was 186 ± 9 picomoles/gram of tumor/hour; in data set [2] (3 mg/kg oral, 2 hours post treatment, vehicle control 173 ± 9), 49 ± 8 picomoles/gram of tumor/hour; in data set [2] (3 mg/kg oral, 4 hours post treatment, vehicle control 173 ± 9), 62 ± 7 picomoles/gram of tumor/hour; in data set [2] (3 mg/kg oral, 6 hours post treatment, vehicle control 173 ± 9) it was 64 ± 9 picomoles/gram of tumor/hour. The “Estrogen formed, absolute level” value was 68 ± 6 picomoles/gram of tumor/hour in data set [2] (3 mg/kg subcutaneous, 2 hours post treatment, vehicle control 121 ± 85); 67 ± 3 picomoles/gram of tumor/hour in data set [2] (3 mg/kg subcutaneous, 4 hours post treatment, vehicle control 121 ± 85); 78 ± 9 picomoles/gram of tumor/hour in data set [2] (3 mg/kg subcutaneous, 6 hours post treatment, vehicle control 121 ± 85). Moreover, in data set [3], the “.tau.50 (half-time of inactivation at infinite inhibitor concentration)” value came out at 2.86 min. In data set [3], the KI (inactivation) amounted to 17.6 nM.
Regarding `C[C@]12CC[C@H]3[C@@H](C=CC4=CC(=O)[C@H]5COC[C@]43C5)[C@@H]1CCC2=O` [2,19-(methyleneoxy)androsta-4,6-diene-3,17-dione], in data set [3], the “.tau.50 (half-time of inactivation at infinite inhibitor concentration)” value was 2.82 min and the KI (inactivation) was determined as 21.6 nM.
`C[C@]12CC[C@H]3[C@@H](CCC4=CC(=O)[C@H]5CSC[C@]43C5)[C@@H]1CCC2=O` [2,19-(methylenethio)androst-4-ene-3,17-dione]: in data set [3], the “.tau.50 (half-time of inactivation at infinite inhibitor concentration)” value stood at 1.65 min and the KI (inactivation) is 53 nM.

B1: aromatase (Homo sapiens) (protein)
chain: MVLEMLNPIHYNITSIVPEAMPAATMPVLLLTGLFLLVWNYEGTSSIPGPGYCMGIGPLISHGRFLWMGIGSACNYYNRVYGEFMRVWISGEETLIISKSSSMFHIMKHNHYSSRFGSKLGLQCIGMHEKGIIFNNNPELWKTTRPFFMKALSGPGLVRMVTVCAESLKTHLDRLEEVTNESGYVDVLTLLRRVMLDTSNTLFLRIPLDESAIVVKIQGYFDAWQALLIKPDIFFKISWLYKKYEKSVKDLKDAIEVLIAEKRRRISTEEKLEECMDFATELILAEKRGDLTRENVNQCILEMLIAAPDTMSVSLFFMLFLIAKHPNVEEAIIKEIQTVIGERDIKIDDIQKLKVMENFIYESMRYQPVVDLVMRKALEDDVIDGYPVKKGTNIILNIGRMHRLEFFPKPNEFTLENFAKNVPYRYFQPFGFGPRGCAGKYIAMVMMKAILVTLLRRFHVKTLQGQCVESIQKIHDLSLHPDETKNMLEMIFTPRNSDRCLEH
As to B1, the Km in data set [4] was determined as 0.04 µM.
